Paper PMC12520456, “Regulating Enzyme Activity via Microaggregates Mediated by Phase Separation” (Advanced Science, 2025)
Non-standard residues stand in square brackets, D forms with d. Residues, ends and D or L forms follow the SMILES beside them.

Columns and labels:
[1] = biological target: T1, bovine serum albumin (BSA) (Bos taurus, UniProt P02769); assay: Fluorescence anisotropy specificity test; format: binding; settings: fluorescently labeled DPMD; Figure S3H
T1 construct: purchased Psaitong Biotechnology
Description: (§1) To validate the design, DPMD was synthesized using solid‐phase synthesis employing HOBt/HBTU and Fmoc chemistry, following a sequence schematic diagram depicted in Figure 1A. Subsequently, a single reverse column purification by High‐performance liquid chromatography (HPLC) yielded DPMD with purity exceeding 95% at a yield surpassing 60% (Figure S1B, Supporting Information). Circular dichroism (CD) spectra were recorded for a 40 µM DPMD sample in an aqueous solution containing 20% TFE at room temperature. The use of 20% TFE was necessary to obtain a clear spectrum, as it enhances peptide solubility and stabilizes secondary structure.^[ [9] ^] […] To further confirm that DPMD's enzymatic targeting is specific and not a broad‐spectrum protein aggregation effect, we tested DPMD against other pancreatic enzymes and abundant plasma proteins. Fluorescently labeled DPMD was mixed with elastase, pancreatic lipase, α‐amylase, carboxypeptidase A, bovine serum albumin (BSA), and IgG, respectively, and fluorescence anisotropy was measured to detect binding. […] For example, anisotropy values for DPMD + elastase (or lipase, amylase, etc.) remained near the baseline (DPMD‐alone) level, whereas DPMD + trypsin produced a pronounced anisotropy elevation (reflecting peptide‐enzyme complex formation and microaggregate assembly).
(§2) Figure S3. […]
(§3) (D-H) The fluorescent anisotropy
(§4) evaluation of binding affinity between DPMD peptide with elastase (D), lipase (E), amylase(F), carboxypeptidase
(§5) (G), albumin (H) and immunoglobulins (I). […]

pancreatic lipase = biological target: T2, pancreatic lipase (Sus scrofa, UniProt P00591); assay: Fluorescence anisotropy specificity test; format: binding; settings: fluorescently labeled DPMD; Figure S3E
T2 construct: purchased Macklin
T2 sequence (P00591 1-450): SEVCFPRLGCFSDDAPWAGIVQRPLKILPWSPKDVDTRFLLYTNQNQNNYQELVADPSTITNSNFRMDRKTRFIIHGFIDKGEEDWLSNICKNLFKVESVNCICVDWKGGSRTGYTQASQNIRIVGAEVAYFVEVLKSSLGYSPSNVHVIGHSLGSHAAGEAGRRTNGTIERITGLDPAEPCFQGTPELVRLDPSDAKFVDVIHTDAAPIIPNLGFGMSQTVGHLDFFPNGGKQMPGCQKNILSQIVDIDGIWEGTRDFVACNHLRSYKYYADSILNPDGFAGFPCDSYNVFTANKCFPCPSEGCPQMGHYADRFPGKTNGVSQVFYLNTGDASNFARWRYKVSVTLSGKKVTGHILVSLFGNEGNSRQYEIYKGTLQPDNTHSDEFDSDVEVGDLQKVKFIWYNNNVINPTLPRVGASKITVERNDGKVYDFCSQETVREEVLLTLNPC
Description: as §1, §2, §3, §4, §5

elastase = biological target: T3, elastase (Sus scrofa, UniProt P00772); assay: Fluorescence anisotropy specificity test; format: binding; settings: fluorescently labeled DPMD; Figure S3D
T3 construct: purchased Sangon
Description: as §1, §2, §3, §4, §5

α-amylase = assay: Fluorescence anisotropy specificity test; format: binding; settings: fluorescently labeled DPMD; Figure S3F
Description: as §1, §2, §3, §4, §5

carboxypeptidase A = assay: Fluorescence anisotropy specificity test; format: binding; settings: fluorescently labeled DPMD; Figure S3G
Description: as §1, §2, §3, §4, §5

IgG = assay: Fluorescence anisotropy specificity test; format: binding; settings: fluorescently labeled DPMD; Figure S3I
Description: as §1, §2, §3, §4, §5

[2] = system: trypsin pre-incubated with aprotinin; assay: Fluorescence anisotropy binding, aprotinin-blocked trypsin; settings: inhibitor and protein both at 20 μM; Figure S3B
Text: Figure S3. The fluorescent anisotropy evaluation of binding affinity between DPMD peptide with Proteinase K (A), and inhibitor-saturated and blocked trypsin (B) and chymotrypsin (C). Trypsin/Chymotrypsin was saturated and blocked by aprotinin (Yeasen Biotechnology, trypsin/chymotrypsin inhibitor). (D-H) The fluorescent anisotropy evaluation of binding affinity between DPMD peptide with elastase (D), lipase (E), amylase(F), carboxypeptidase (G), albumin (H) and immunoglobulins (I).
Figure S4. The DLS analysis of trypsin, chymotrypsin and DPMD with/without trypsin or chymotrypsin. […]
data acquisition. A series of enzyme solutions with varying concentrations (maximum concentrations of trypsin and chymotrypsin were 20 μM each) were prepared in Tris-HCl buffer (10 mM Tris, 150 mM NaCl, 1 mM EDTA, pH 7.0). These enzyme solutions were added to the 96-well plate and incubated with 100 nM DPMD at room temperature for 30 minutes, with triplicates.
Fluorescence polarization was measured with an excitation wavelength of 470 nm and an emission […]
Plot the fluorescence intensity versus concentration data as scatter plots using Origin software.
For data analysis, fit the concentration-fluorescence polarization data with the logistic function in Origin 2021 software to obtain the fitting curve and determine the half-maximal effective concentration (EC50). […]

T3 sequence (P00772 27-266): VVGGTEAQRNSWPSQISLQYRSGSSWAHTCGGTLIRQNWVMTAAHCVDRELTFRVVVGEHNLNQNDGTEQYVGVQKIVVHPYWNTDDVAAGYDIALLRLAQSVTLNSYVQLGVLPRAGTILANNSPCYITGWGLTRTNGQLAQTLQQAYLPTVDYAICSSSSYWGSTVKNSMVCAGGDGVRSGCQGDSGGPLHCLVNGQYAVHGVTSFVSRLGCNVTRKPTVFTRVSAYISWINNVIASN
T1 sequence (P02769 25-607): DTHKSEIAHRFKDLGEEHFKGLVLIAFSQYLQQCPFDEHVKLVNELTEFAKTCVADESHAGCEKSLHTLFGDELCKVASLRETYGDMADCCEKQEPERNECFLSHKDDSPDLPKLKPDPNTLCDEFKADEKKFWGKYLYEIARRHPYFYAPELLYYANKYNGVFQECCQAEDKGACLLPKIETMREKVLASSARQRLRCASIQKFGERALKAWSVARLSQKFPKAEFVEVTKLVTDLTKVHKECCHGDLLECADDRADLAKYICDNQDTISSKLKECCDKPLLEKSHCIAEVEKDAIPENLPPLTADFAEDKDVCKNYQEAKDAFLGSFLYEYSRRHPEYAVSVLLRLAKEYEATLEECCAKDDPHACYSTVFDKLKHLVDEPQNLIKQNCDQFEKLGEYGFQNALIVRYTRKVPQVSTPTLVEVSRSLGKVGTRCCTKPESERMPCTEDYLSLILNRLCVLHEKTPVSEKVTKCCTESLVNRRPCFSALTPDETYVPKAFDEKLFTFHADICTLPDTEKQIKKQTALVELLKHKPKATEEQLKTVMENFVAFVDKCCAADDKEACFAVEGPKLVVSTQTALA

CC[C@@H](C)[C@@H](NC(=O)[C@@H](CCC(N)=O)NC(=O)[C@H](NC(=O)[C@@H](Cc1ccc(O)cc1)NC(=O)CNC(=O)[C@@H](CC(C)C)NC(=O)[C@H](NC(=O)[C@@H](CO)NC(=O)CNC(=O)[C@@H](C)NC(=O)[C@@H](CC(=O)O)NC(=O)[C@@H](C)NC(=O)[C@@H](CCCNC(=N)N)NC(=O)[C@@H](C)NC(=O)[C@@H](CC(=O)O)NC(=O)[C@@H](C)NC(=O)[C@@H](CCCNC(=N)N)NC(=O)[C@@H](C)NC(=O)[C@@H](CC(=O)O)NC(=O)[C@@H](C)NC(=O)[C@@H](CCCNC(=N)N)NC(=O)[C@@H](C)NC(=O)[C@@H](CC(=O)O)NC(=O)[C@@H](C)NC(=O)[C@H](N)CCCNC(=N)N)C(C)C)[C@H](C)CC)C(=O)N[C@H](CCCNC(=N)N)C(=O)O [DPMD, Ac‐(D‐RADA)4‐CONH2] (H-[dR][dA][dD][dA][dR][dA][dD][dA][dR][dA][dD][dA][dR][dA][dD][dA]G[dS][dV][dL]G[dY][dI][dQ][dI][dR]-OH; N-terminus and C-terminus assumed)
anisotropy increase with BSA [1]: no significant anisotropy increase
anisotropy increase with pancreatic lipase (pancreatic lipase): no significant anisotropy increase
anisotropy increase with elastase (elastase): no significant anisotropy increase
anisotropy increase with α-amylase (α-amylase): no significant anisotropy increase
anisotropy increase with carboxypeptidase A (carboxypeptidase A): no significant anisotropy increase
anisotropy increase with IgG (IgG): no significant anisotropy increase
anisotropy change with aprotinin-blocked trypsin [2]: only a minimal anisotropy change
